Test results published in patent publication US20250313574A1, “SIALIC ACID DERIVATIVES AND METHODS OF USING SAME” (EISAI R&D MANAGEMENT CO., LTD., priority 2022, published 2025).
Several values for one entry are separate records, joined by “and”; a condition that tells them apart may be missing. Identical values can stand only once. Like-named read-outs stand apart in the source and are kept apart here.

Tests used:
[1] = rcm bond, toluene
[2] = target: Recombinant human CD33 protein (Homo sapiens (Human), UniProt P20138); assay: CD33 competitive binding assay for HTS drug screen (fluorescent multivalent sialic acid probe)
In short: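 Inhibition was read as reduced retention of a fluorescent multivalent sialic acid complex (final 5 μM neutravidin, 15 μM A-375, 5 μM biotin-4-FITC) on plate-immobilized human CD33. Compound was added first, the probe followed for 30 min at room temperature in PBS with 0.2% Tween-20 and 0.5% BSA, and FITC was measured after a wash.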

[3] = target: recombinant human CD33 (Siglec-3, sialic acid binding Ig-like lectin 3) protein (Homo sapiens (Human), UniProt P20138); assay: Differential Scanning Fluorimetry (DSF, Protein Thermal Shift Assay); conditions: 50 μM of A-001; CD33 alone melts at approximately 55° C.
Description: FIG. 1 depicts thermograms (A) and derivative curves (B) of His-CD33 (gray) and His-CD33 with A-001 (blue).
Differential Scanning Fluorimetry (also known as DSF, Protein Thermal Shift Assay, Thermofluor Assay) was used to measure and compare the thermal melt or thermal denaturation temperature of recombinant human CD33 (Siglec-3, sialic acid binding Ig-like lectin 3) protein in the presence of 50 μM of A-001. In the absence of any compound, the CD33 protein has a thermal melt at approximately 55° C. under the method conditions described in this report.

[4] = target: Recombinant Human Siglec-3/CD33 protein (His-CD33) (Homo sapiens (Human), UniProt P20138); assay: Differential scanning fluorimetry (DSF) thermal shift assay; format: binding
[5] = difference in thermal melt of CD33 protein (0.5 μM) with 50 μM compound

Recombinant Human Siglec-3/CD33 protein (His-CD33), sequence (P20138 18-259): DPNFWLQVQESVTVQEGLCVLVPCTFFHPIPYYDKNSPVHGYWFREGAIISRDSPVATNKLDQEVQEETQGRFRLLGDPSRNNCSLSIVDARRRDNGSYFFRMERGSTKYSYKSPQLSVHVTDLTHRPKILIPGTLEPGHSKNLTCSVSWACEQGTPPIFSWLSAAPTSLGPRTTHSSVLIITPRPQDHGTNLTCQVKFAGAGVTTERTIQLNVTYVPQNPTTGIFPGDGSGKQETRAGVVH
Recombinant human CD33 protein, sequence (P20138 18-259): as above
recombinant human CD33 (Siglec-3, sialic acid binding Ig-like lectin 3) protein, sequence (P20138 18-259): as above

CC(=O)O[C@H]1[C@@H]2O[C@](C(=O)OCc3ccccc3)(CC=CCCCCC(=O)NCCCOc3c(C)cc(cc3C)C(=O)NC[C@H]1OC(C)=O)C[C@H](OC(C)=O)[C@H]2NC(=O)OC(C)(C)C
ring closure, isolated yield ([1]; from C=CCCCCC(=O)NCCCOc1c(C)cc(C(=O)NC[C@@H](OC(C)=O)[C@@H](OC(C)=O)[C@@H]2O[C@@](CC=C)(C(=O)OCc3ccccc3)C[C@H](OC(C)=O)[C@H]2NC(=O)OC(C)(C)C)cc1C, 25-membered ring, Hoveyda-Grubbs II, 2.15 mM, 90.0 °C, 0.58 h): 41%

CC(=O)O[C@H]1[C@@H]2O[C@](C(=O)OCc3ccccc3)(CC=CCOC[C@@H](C)C(=O)NCCCOc3c(C)cc(cc3C)C(=O)NC[C@H]1OC(C)=O)C[C@H](OC(C)=O)[C@H]2NC(=O)OC(C)(C)C
ring closure, isolated yield ([1]; from C=CCOC[C@@H](C)C(=O)NCCCOc1c(C)cc(C(=O)NC[C@@H](OC(C)=O)[C@@H](OC(C)=O)[C@@H]2O[C@@](CC=C)(C(=O)OCc3ccccc3)C[C@H](OC(C)=O)[C@H]2NC(=O)OC(C)(C)C)cc1C, 25-membered ring, Hoveyda-Grubbs II (10 mol%)/1,4-benzoquinone, 1.52 mM, 80.0 °C, 1.0 h): 47%

COC(=O)[C@]12CC=CCCC[C@@H](NC(=O)C3CCCOC3)c3cccc(c3)COc3c(C)cc(cc3C)C(=O)NC[C@@H](OC(C)=O)[C@@H](OC(C)=O)[C@H](O1)[C@H](NC(=O)OC(C)(C)C)[C@@H](OC(C)=O)C2 (some centres unmarked)
ring closure, isolated yield ([1]; from C=CCCC[C@@H](NC(=O)C1CCCOC1)c1cccc(COc2c(C)cc(C(=O)NC[C@@H](OC(C)=O)[C@@H](OC(C)=O)[C@@H]3O[C@@](CC=C)(C(=O)OC)C[C@H](OC(C)=O)[C@H]3NC(=O)OC(C)(C)C)cc2C)c1, 24-membered ring, Hoveyda-Grubbs II/quinone, 1.03 mM, 90.0 °C, 24.0 h): 71%

COC(=O)[C@]12CC=CCOC[C@@H](NC(=O)C3CCCOC3)COCCCOc3c(C)cc(cc3C)C(=O)NC[C@@H](OC(C)=O)[C@@H](OC(C)=O)[C@H](O1)[C@H](NC(=O)OC(C)(C)C)[C@@H](OC(C)=O)C2 (some centres unmarked)
ring closure, isolated yield ([1]; from C=CCOC[C@H](COCCCOc1c(C)cc(C(=O)NC[C@@H](OC(C)=O)[C@@H](OC(C)=O)[C@@H]2O[C@@](CC=C)(C(=O)OC)C[C@H](OC(C)=O)[C@H]2NC(=O)OC(C)(C)C)cc1C)NC(=O)C1CCCOC1, 25-membered ring, Hoveyda-Grubbs II/quinone, 1.04 mM, 90.0 °C, 24.0 h): 76%

COC(=O)[C@]12CC=CCOC[C@@H](NC(=O)C3CCCOC3)COCCOc3c(C)cc(cc3C)C(=O)NC[C@@H](OC(C)=O)[C@@H](OC(C)=O)[C@H](O1)[C@H](NC(=O)OC(C)(C)C)[C@@H](OC(C)=O)C2 (some centres unmarked)
ring closure, isolated yield ([1]; from C=CCOC[C@H](COCCOc1c(C)cc(C(=O)NC[C@@H](OC(C)=O)[C@@H](OC(C)=O)[C@@H]2O[C@@](CC=C)(C(=O)OC)C[C@H](OC(C)=O)[C@H]2NC(=O)OC(C)(C)C)cc1C)NC(=O)C1CCCOC1, 24-membered ring, Hoveyda-Grubbs II/quinone, 1.05 mM, 80.0 °C, 3.0 h): 60%

COC(=O)[C@]12CC=CCOC[C@@H](NC(=O)OC(C)(C)C)COCCCOc3c(C)cc(cc3C)C(=O)NC[C@@H](OC(C)=O)[C@@H](OC(C)=O)[C@H](O1)[C@H](NC(C)=O)[C@@H](OC(C)=O)C2
ring closure, isolated yield ([1]; from C=CCOC[C@H](COCCCOc1c(C)cc(C(=O)NC[C@@H](OC(C)=O)[C@@H](OC(C)=O)[C@@H]2O[C@@](CC=C)(C(=O)OC)C[C@H](OC(C)=O)[C@H]2NC(C)=O)cc1C)NC(=O)OC(C)(C)C, 25-membered ring, Hoveyda-Grubbs II/quinone, 1.12 mM, 100.0 °C, 3.0 h): 84%

COC(=O)[C@]12CC=CCOC[C@H]3C[C@H](CN3C(=O)C3CCCOC3)OCCOc3c(C)cc(cc3C)C(=O)NC[C@@H](OC(C)=O)[C@@H](OC(C)=O)[C@H](O1)[C@H](NC(=O)OC(C)(C)C)[C@@H](OC(C)=O)C2 (some centres unmarked)
ring closure, isolated yield ([1]; from C=CCOC[C@H]1C[C@@H](OCCOc2c(C)cc(C(=O)NC[C@@H](OC(C)=O)[C@@H](OC(C)=O)[C@@H]3O[C@@](CC=C)(C(=O)OC)C[C@H](OC(C)=O)[C@H]3NC(=O)OC(C)(C)C)cc2C)CN1C(=O)C1CCCOC1, 25-membered ring, Hoveyda-Grubbs II/quinone, 1.03 mM, 90.0 °C, 24.0 h): 64%

COC(=O)[C@]12CC=Cc3cccc(c3)[C@@H](NC(=O)C3CCCOC3)CCCCOc3c(C)cc(cc3C)C(=O)NC[C@@H](OC(C)=O)[C@@H](OC(C)=O)[C@H](O1)[C@H](NC(=O)OC(C)(C)C)[C@@H](OC(C)=O)C2 (some centres unmarked)
ring closure, isolated yield ([1]; from C=CC[C@]1(C(=O)OC)C[C@H](OC(C)=O)[C@@H](NC(=O)OC(C)(C)C)[C@H]([C@H](OC(C)=O)[C@@H](CNC(=O)c2cc(C)c(OCCCC[C@H](NC(=O)C3CCCOC3)c3cccc(C=C)c3)c(C)c2)OC(C)=O)O1, 24-membered ring, Hoveyda-Grubbs II/quinone, 1.02 mM, 80.0 °C, 1.0 h): 29%

COC(=O)[C@]12CC=Cc3cccc(c3)[C@@H](NC(=O)C3CCCOC3)CCCCc3cc(cc(Cl)c3OC(C)=O)C(=O)NC[C@@H](OC(C)=O)[C@@H](OC(C)=O)[C@H](O1)[C@H](NC(=O)OC(C)(C)C)[C@@H](OC(C)=O)C2 (some centres unmarked)
ring closure, isolated yield ([1]; from C=CC[C@]1(C(=O)OC)C[C@H](OC(C)=O)[C@@H](NC(=O)OC(C)(C)C)[C@H]([C@H](OC(C)=O)[C@@H](CNC(=O)c2cc(Cl)c(OC(C)=O)c(CCCC[C@H](NC(=O)C3CCCOC3)c3cccc(C=C)c3)c2)OC(C)=O)O1, 22-membered ring, Hoveyda-Grubbs II/quinone, 1.3 mM, 88.0 °C, 0.5 h): 57% | ring closure, isolated yield ([1]; from C=CC[C@]1(C(=O)OC)C[C@H](OC(C)=O)[C@@H](NC(=O)OC(C)(C)C)[C@H]([C@H](OC(C)=O)[C@@H](CNC(=O)c2cc(Cl)c(OC(C)=O)c(CCCC[C@H](NC(=O)C3CCCOC3)c3cccc(C=C)c3)c2)OC(C)=O)O1, Hoveyda-Grubbs II/quinone, 1.3 mM, 88.0 °C, 0.5 h): 16%

CC(=O)N[C@H]1[C@H]([C@H](O)[C@H](O)CNC(=O)c2cc(C)c(O)c(C)c2)O[C@@](CCN2CCOC[C@@]23CCN(C(=O)OC(C)(C)C)C3)(C(=O)O)C[C@@H]1O [A-001]
EC50 [2]: 0.015 µM | increase in thermal melt (dTm D) of CD33 protein [3]: 12.2±0.7 °C | ΔTm D (° C.) ([4]; 50 μM compound, 0.5 μM CD33 protein, pH 7.4, individual determinations): 11.9 °C and 12.9 °C | ΔTm at 50 µM ([4]; 50 μM compound, 0.5 μM CD33 protein, pH 7.4, individual determinations, read-out: ΔTm D (° C.)): 12.2 °C | ΔTm at 50 µM ([4]; 50 μM compound, 0.5 μM CD33 protein, pH 7.4, read-out: Median ΔTm D (° C.)): 12.2 ± 0.7 °C | DSF (dTmD) ([4]; thermal melt shift of 0.5 μM CD33 protein with 50 μM compound): 12.9

CC(=O)N[C@H]1[C@H]([C@H](O)[C@H](O)CNC(=O)c2cc(C)c(O)c(C)c2)O[C@@](CCN2CCOC[C@@]23CCN(C(=O)OC(C)(C)C)C3)(C(=O)NS(=O)(=O)C(F)(F)F)C[C@@H]1O [A-367]
EC50 [2]: > 100 µM | DSF (dTmD) [4, 5]: 0.1 °C

CC(=O)N[C@H]1[C@H]([C@H](O)[C@H](O)CNC(=O)c2cc(C)c(O)c(C)c2)O[C@@](CCN2CCOC[C@@]23CCN(C(=O)OC(C)(C)C)C3)(C(=O)NS(=O)(=O)c2ccccc2)C[C@@H]1O [A-368]
EC50 [2]: 15 µM | DSF (dTmD) [4, 5]: −0.1 °C
